According to US20100311714A1, “1H-IMIDAZO[4,5-c]QUINOLINONE COMPOUNDS” (priority 2009, published 2010):

Test system: PKB Ser473 phosphorylation in Rat1-myr-HA-p110 beta cells
Assay: Reverse protein array, PKB Ser473 phosphorylation in Rat1-myr-HA-p110 beta cells
Format: cell-based
Conditions: Rattus norvegicus, 0.5 h, 30 minutes compound incubation, read-out: p-PKB/IC50_beta

COC1CCN(c2ccc(-n3c(=O)n(C)c4cnc5ccc(-c6cncc(C(C)(C)O)c6)cc5c43)c(C)n2)C1 (stereo not shown) [Example 28.1, 8-[5-(1-Hydroxy-1-methyl-ethyl)-pyridin-3-yl]-1-[6-(3-methoxy-pyrrolidin-1-yl)-2-methyl-pyridin-3-yl]-3-methyl-1,3-dihydro-imidazo[4,5-c]quinolin-2-one]
IC50: 36.7 nM

Cc1cccnc1-n1c(=O)n(C)c2cnc3ccc(-c4ccc(C(N)=O)cc4)cc3c21 [Example 3.3, 4-[3-Methyl-1-(3-methyl-pyridin-2-yl)-2-oxo-2,3-dihydro-1H-imidazo[4,5-c]quinolin-8-yl]-benzamide]
IC50: 259 nM

CCOc1cc(-c2ccc3ncc4c(c3c2)n(-c2ccc(N3CCCC3)nc2C)c(=O)n4C)cnc1COC [Example 25.2, 8-(5-Ethoxy-6-methoxymethyl-pyridin-3-yl)-3-methyl-1-(2-methyl-6-pyrrolidin-1-yl-pyridin-3-yl)-1,3-dihydro-imidazo[4,5-c]quinolin-2-one]
IC50: 39.9 nM

CNc1cc(-c2ccc3ncc4c(c3c2)n(-c2cccnc2C)c(=O)n4C)cnc1C [Example 2.32, 3-Methyl-8-(6-methyl-5-methylamino-pyridin-3-yl)-1-(2-methyl-pyridin-3-yl)-1,3-dihydro-imidazo[4,5-c]quinolin-2-one]
IC50: 6 nM

Cc1nc(F)ccc1-n1c(=O)n(C)c2cnc3ccc(-c4cnc5c(ccn5C)c4)cc3c21 [Example 7.2, 1-(6-Fluoro-2-methyl-pyridin-3-yl)-3-methyl-8-(1-methyl-1H-pyrrolo[2,3-b]pyridin-5-yl)-1,3-dihydro-imidazo[4,5-c]quinolin-2-one]
IC50: 29.5 nM

Cc1ncccc1-n1c(=O)n(C)c2cnc3ccc(-c4cncc(N)c4)cc3c21 [Example 2.25, 8-(5-Amino-pyridin-3-yl)-3-methyl-1-(2-methyl-pyridin-3-yl)-1,3-dihydro-imidazo[4,5-c]quinolin-2-one]
IC50: 58.7 nM

Cc1ncccc1-n1c(=O)n(C)c2cnc3ccc(-c4cncc(NC(C)C)c4)cc3c21 [Example 2.24, 8-(5-Isopropylamino-pyridin-3-yl)-3-methyl-1-(2-methyl-pyridin-3-yl)-1,3-dihydro-imidazo[4,5-c]quinolin-2-one]
IC50: 16.4 nM

Cc1ccncc1-n1c(=O)n(C)c2cnc3ccc(-c4ccc(CO)nc4)cc3c21 [Example 4.1, 8-(6-Hydroxymethyl-pyridin-3-yl)-3-methyl-1-(4-methyl-pyridin-3-yl)-1,3-dihydro-imidazo[4,5-c]quinolin-2-one]
IC50: 694 nM

CCOc1cc(-c2ccc3ncc4c(c3c2)n(-c2ccc(OCCOC)nc2C)c(=O)n4C)cnc1COC [Example 22.1, 8-(5-Ethoxy-6-methoxymethyl-pyridin-3-yl)-1-[6-(2-methoxy-ethoxy)-2-methyl-pyridin-3-yl]-3-methyl-1,3-dihydro-imidazo[4,5-c]quinolin-2-one]
IC50: 66.7 nM

CNc1ncc(-c2ccc3ncc4c(c3c2)n(-c2ccc(N3CC[C@H](O)C3)nc2C)c(=O)n4C)cn1 [Example 32.1, 1-[6-((S)-3-Hydroxy-pyrrolidin-1-yl)-2-methyl-pyridin-3-yl]-3-methyl-8-(2-methylamino-pyrimidin-5-yl)-1,3-dihydro-imidazo[4,5-c]quinolin-2-one]
IC50: < 4.57 nM

Cc1nc(N2CCCC2)ccc1-n1c(=O)n(C)c2cnc3ccc(-c4cncc(C(C)(C)O)c4)cc3c21 [Example 25.3, 8-[5-(1-Hydroxy-1-methyl-ethyl)-pyridin-3-yl]-3-methyl-1-(2-methyl-6-pyrrolidin-1-yl-pyridin-3-yl)-1,3-dihydro-imidazo[4,5-c]quinolin-2-one]
IC50: 30.6 nM

CNc1ncc(-c2ccc3ncc4c(c3c2)n(-c2ccc(N3CC(O)C3)nc2C)c(=O)n4C)cc1F [Example 29.3, 8-(5-Fluoro-6-methylamino-pyridin-3-yl)-1-[6-(3-hydroxy-azetidin-1-yl)-2-methyl-pyridin-3-yl]-3-methyl-1,3-dihydro-imidazo[4,5-c]quinolin-2-one]
IC50: 31.9 nM

Cc1ncccc1-n1c(=O)n(C)c2cnc3ccc(-c4ccc(C(N)=O)cc4)cc3c21 [Example 2.3, 4-[3-Methyl-1-(2-methyl-pyridin-3-yl)-2-oxo-2,3-dihydro-1H-imidazo[4,5-c]quinolin-8-yl]-benzamide]
IC50: 15.9 nM

COc1ccc(-c2ccc3ncc4c(c3c2)n(-c2cccnc2C)c(=O)n4C)cc1OC [Example 2.9, 8-(3,4-Dimethoxy-phenyl)-3-methyl-1-(2-methyl-pyridin-3-yl)-1,3-dihydro-imidazo[4,5-c]quinolin-2-one]
IC50: 15.7 nM

COc1ncccc1-n1c(=O)n(C)c2cnc3ccc(-c4cnc5[nH]ccc5c4)cc3c21 [Example 1.2, 1-(2-Methoxy-pyridin-3-yl)-3-methyl-8-(1H-pyrrolo[2,3-b]pyridin-5-yl)-1,3-dihydro-imidazo[4,5-c]quinolin-2-one]
IC50: < 4.57 nM

COCc1ncc(-c2ccc3ncc4c(c3c2)n(-c2ccc(N3CCC3)nc2C)c(=O)n4C)cc1OC [Example 23.6, 1-(6-Azetidin-1-yl-2-methyl-pyridin-3-yl)-8-(5-methoxy-6-methoxymethyl-pyridin-3-yl)-3-methyl-1,3-dihydro-imidazo[4,5-c]quinolin-2-one]
IC50: 103 nM

Cc1ncccc1-n1c(=O)n(C)c2cnc3ccc(-c4cnc(N(C)C)nc4)cc3c21 [Example 2.15, 8-(2-Dimethylamino-pyrimidin-5-yl)-3-methyl-1-(2-methyl-pyridin-3-yl)-1,3-dihydro-imidazo[4,5-c]quinolin-2-one]
IC50: 101 nM

CNc1ccc(-c2ccc3ncc4c(c3c2)n(-c2ccc(F)nc2C)c(=O)n4C)cn1 [Example 7.4, 1-(6-Fluoro-2-methyl-pyridin-3-yl)-3-methyl-8-(6-methylamino-pyridin-3-yl)-1,3-dihydro-imidazo[4,5-c]quinolin-2-one]
IC50: 8.6 nM

CNC(=O)c1ccc(-c2ccc3ncc4c(c3c2)n(-c2ncccc2C)c(=O)n4C)cc1 [Example 3.5, N-Methyl-4-[3-methyl-1-(3-methyl-pyridin-2-yl)-2-oxo-2,3-dihydro-1H-imidazo[4,5-c]quinolin-8-yl]-benzamide]
IC50: 131 nM

COc1ncc(-c2ccc3ncc4c(c3c2)n(-c2ccc(N3CC(O)C3)nc2C)c(=O)n4C)c(OC)n1 [Example 29.6, 8-(2,4-Dimethoxy-pyrimidin-5-yl)-1-[6-(3-hydroxy-azetidin-1-yl)-2-methyl-pyridin-3-yl]-3-methyl-1,3-dihydro-imidazo[4,5-c]quinolin-2-one]
IC50: 208 nM

Cc1ncccc1-n1c(=O)n(C)c2cnc3ccc(-c4ccc(N)nc4)cc3c21 [Example 2.7, 8-(6-Amino-pyridin-3-yl)-3-methyl-1-(2-methyl-pyridin-3-yl)-1,3-dihydro-imidazo[4,5-c]quinolin-2-one]
IC50: 19.2 nM

CCNc1cc(-c2ccc3ncc4c(c3c2)n(-c2ccc(N3CCC3)nc2C)c(=O)n4C)cnc1CO [Example 23.8, 1-(6-Azetidin-1-yl-2-methyl-pyridin-3-yl)-8-(5-ethylamino-6-hydroxymethyl-pyridin-3-yl)-3-methyl-1,3-dihydro-imidazo[4,5-c]quinolin-2-one]
IC50: < 4.57 nM

CCOc1cc(-c2ccc3ncc4c(c3c2)n(-c2ccc(N3CCC3)nc2C)c(=O)n4C)cnc1COC [Example 23.5, 1-(6-Azetidin-1-yl-2-methyl-pyridin-3-yl)-8-(5-ethoxy-6-methoxymethyl-pyridin-3-yl)-3-methyl-1,3-dihydro-imidazo[4,5-c]quinolin-2-one]
IC50: 98.6 nM

CCOc1ccc(-c2ccc3ncc4c(c3c2)n(-c2cnccc2C)c(=O)n4C)cn1 [Example 4.2, 8-(6-Ethoxy-pyridin-3-yl)-3-methyl-1-(4-methyl-pyridin-3-yl)-1,3-dihydro-imidazo[4,5-c]quinolin-2-one]
IC50: 149 nM

Cc1ncccc1-n1c(=O)n(C)c2cnc3ccc(-c4cncc(N5CCC5)c4)cc3c21 [Example 2.29, 8-(5-Azetidin-1-yl-pyridin-3-yl)-3-methyl-1-(2-methyl-pyridin-3-yl)-1,3-dihydro-imidazo[4,5-c]quinolin-2-one]
IC50: 19.7 nM

Cc1ncccc1-n1c(=O)n(C)c2cnc3ccc(-c4cnc(N)c(C(F)(F)F)c4)cc3c21 [Example 2.11, 8-(6-Amino-5-trifluoromethyl-pyridin-3-yl)-3-methyl-1-(2-methyl-pyridin-3-yl)-1,3-dihydro-imidazo[4,5-c]quinolin-2-one]
IC50: 9.92 nM

CCNc1ncc(-c2ccc3ncc4c(c3c2)n(-c2ccc(N3CC[C@@H](O)C3)nc2C)c(=O)n4C)cc1COCC [Example 34.4, 8-(5-Ethoxymethyl-6-ethylamino-pyridin-3-yl)-1-[6-((R)-3-hydroxy-pyrrolidin-1-yl)-2-methyl-pyridin-3-yl]-3-methyl-1,3-dihydro-imidazo[4,5-c]quinolin-2-one]
IC50: 27.9 nM

CNc1ncc(-c2ccc3ncc4c(c3c2)n(-c2ccc(N(C)CCO)nc2C)c(=O)n4C)cn1 [Example 26.2, 1-{6-[(2-Hydroxy-ethyl)-methyl-amino]-2-methyl-pyridin-3-yl}-3-methyl-8-(2-methylamino-pyrimidin-5-yl)-1,3-dihydro-imidazo[4,5-c]quinolin-2-one]
IC50: < 4.57 nM

CNc1ccc(-c2ccc3ncc4c(c3c2)n(-c2cccnc2C)c(=O)n4C)cn1 [Example 2.13, 3-Methyl-8-(6-methylamino-pyridin-3-yl)-1-(2-methyl-pyridin-3-yl)-1,3-dihydro-imidazo[4,5-c]quinolin-2-one]
IC50: 18.7 nM

COc1nc(N2CCNCC2)ccc1-n1c(=O)n(C)c2cnc3ccc(-c4cnc(N)c(C(F)(F)F)c4)cc3c21 [Example 9.2, 8-(6-Amino-5-trifluoromethyl-pyridin-3-yl)-1-(2-methoxy-6-piperazin-1-yl-pyridin-3-yl)-3-methyl-1,3-dihydro-imidazo[4,5-c]quinolin-2-one]
IC50: 20.6 nM

COc1cc(-c2ccc3ncc4c(c3c2)n(-c2cccnc2C)c(=O)n4C)cnc1C(OC)OC [Example 2.27, 8-(6-Dimethoxymethyl-5-methoxy-pyridin-3-yl)-3-methyl-1-(2-methyl-pyridin-3-yl)-1,3-dihydro-imidazo[4,5-c]quinolin-2-one]
IC50: 247 nM
